Results taken from US12269803B2, “Krüppel-like factor 15 (KLF15) small molecule agonists in kidney disease” (United States Government as represented by the Department …, priority 2020, dated 2025).
In brackets after ≈: the same amount, converted by molar mass. Entries after “also recorded” stand apart in the source; their conditions may differ.

Columns and labels:
KLF15 promoter [1] = assay: KLF15 promoter activity in human podocytes, KLF15 agonist combined with dexamethasone; type: cell-based; conditions: for KLF15 promoter activity, combination with DEX: vs DEX 1 μM
KLF15 reporter = KLF15 reporter activity in LPS-treated human podocytes (podocyte stress model); type: cell-based
Description: (§1) FIG. 10A-D show representative data illustrating the dose-response curve and EC50 (FIG. 10A), KLF15 reporter activity (FIG. 10B), and Renilla activity (cell viability) (FIG. 10C) in LPS-treated HP, and the therapeutic efficacy in abrogating albuminuria (biomarker of kidney disease) in LPS-treated mice (FIG. 10D).
(§2) After the synthesis of these novel analogues, a primary screening assay was conducted.

LPS-treated mice = assay: LPS-induced albuminuria murine model; type: in vivo; conditions: vs DMSO
Description: Referring to FIG. 10D, C57BL/6 mice were treated with lipopolysaccharide (LPS) at dose of 10 μg/g in two divided doses 24 hours apart intraperitoneally to induce podocyte injury and albuminuria.

[2] = Equilibrium solubility in aqueous buffers; type: physicochemical
Description: The pH 2.0 buffer was prepared by combining 50 mL of 0.2 M KCl with 150 mL of H2O, and then adjusting to pH 2.0 with 10 N HCl. […] The pH 7.4 buffer was prepared by combining 50 mL of 0.2 M KH2PO4 with 150 mL of H2O, and then adjusting to pH 7.4 with 10 N NaOH. At least 0.3 mg of powder for each lead compound was combined with 1 mL of each buffer to make a ≥0.3 mg/mL mixture. These samples were shaken on a Thermomixer® overnight at room temperature. The samples were then centrifuged for 10 minutes at 14,000 rpm. The supernatant was sampled and diluted in duplicate 10-, 100-, 1,000-, and 10,000-fold into a mixture of 1:1 buffer:acetonitrile (ACN) prior to analysis. […] Standard concentrations ranged from 1.0 μM to 0.3 nM.

human podocytes [3] = assay: Podocyte survival (Renilla, cell viability) after LPS treatment; type: cell-based; conditions: LPS-treated human podocytes
Description: as §1, §2

human liver microsomes = assay: Stability in human liver microsomes; conditions: human liver microsomes
Description: Mixed-gender human liver microsomes (Lot #1010420) were purchased from XenoTech. The reaction mixture, minus NADPH, was prepared as described below. […] The control compound, testosterone, was run simultaneously with the lead compounds in a separate reaction. The reaction mixture (without cofactor) was equilibrated in a shaking water bath at 37° C. for 3 minutes. The reaction was initiated by the addition of the cofactor, and the mixture was incubated in a shaking water bath at 37° C. Aliquots (100 μL) were withdrawn at 0, 10, 20, 30, and 60 minutes. Each lead compound and testosterone samples were immediately combined with 400 μL of ice-cold 50/50 acetonitrile (ACN)/H2O containing 0.1% formic acid and internal standard to terminate the reaction. The samples were then mixed and centrifuged to precipitate proteins. All samples were assayed by LC-MS/MS using electrospray ionization. The peak area response ratio (PARR) to internal standard was compared to the PARR at time 0 to determine the percent remaining at each time point. Half-lives and clearance were calculated using GraphPad software, fitting to a single-phase exponential decay equation.

[4] = Stability in pH 7.4 phosphate buffer; type: physicochemical; conditions: 37° C., 1 μM
Description: Studies were carried out in pH 7.4 phosphate buffer. The buffer was prepared by combining 50 mL of 0.2 M KH2PO4 with 150 mL of H2O, and then adjusting to pH 7.4 with 10 N NaOH. The buffer was adjusted to pH 7.4 prior to initiating the experiments. […] Aliquots of the DMSO solutions were dosed into 0.5 mL of matrix, which had been pre-warmed to 37° C., at a final lead compound concentration of 1 μM. Individual tubes were dosed for each timepoint. The vials were kept in a benchtop Thermomixer for the duration of the experiment. At each time point (0, 30, 60, and 120 minutes), an equal volume of acetonitrile was added to the appropriate tubes. Samples were stored at 4° C. until the end of the experiment. After the final time point was sampled, the plate was mixed and then centrifuged at 3,000 rpm for 10 minutes. Aliquots of the supernatant were removed, diluted 1:1 into distilled water, and analyzed by LC-MS/MS.

[5] = system: Caco-2 cells (clone C2BBe1); assay: Caco-2 permeability; type: in vitro ADME; conditions: for Papp AVG / Papp R1 / Recovery: 5 μM, 120 minutes
Description: Caco-2 cells (clone C2BBe1) were obtained from American Type Culture Collection (Manassas, VA). Cell monolayers were grown to confluence on collagen-coated, microporous membranes in 12-well assay plates. Details of the plates and their certification are shown below. The permeability assay buffer was Hanks' balanced salt solution containing 10 mM HEPES and 15 mM glucose at a pH of 7.4. The buffer in the receiver chamber also contained 1% bovine serum albumin. The dosing solution concentration was 5 μM of lead compound in the assay buffer. Cell monolayers were dosed on the apical side (A-to-B) or basolateral side (B-to-A) and incubated at 37° C. with 5% CO2 in a humidified incubator. Samples were taken from the donor and receiver chambers at 120 minutes. Each determination was performed in duplicate. The flux of lucifer yellow was also measured post-experimentally for each monolayer to ensure no damage was inflicted to the cell monolayers during the flux period. […] The apparent permeability (Papp) and percent recovery were calculated and provided.

KLF15 promoter [6] = assay: KLF15 reporter human podocyte assay (HTS, dose-response, primary screening); type: cell-based; conditions: for maximal KLF15 reporter activity: dose escalation, at similar concentrations to DEX; for EC50: dose-response curve, human podocytes, luciferase/renilla
Description: A stable reporter assay directed at KLF15 promoter region (4.3 kb region) was generated in human podocytes, a fragment of human KLF15 promoter upstream of the start codon, by amplifying and subcloning it into the firefly luciferase reporter plasmid (co-transfection with renilla to serve as internal controls). KLF15 promoter activity is measured as a ratio of luciferase to renilla activity. Using this reporter cell line, a cell-based HTS assay was developed using recently reported cell-seeding methodology specific to cultured podocytes (16).

human podocytes [7] = assay: Toxicity to human podocytes in primary screening assay (Renilla, cell viability); type: cell-based; conditions: 1 μM, 24 hr
Description: as §2

[8] = system: Db/db mice on the FVB/N background; assay: db/db murine model of progressive diabetic kidney disease; type: in vivo; conditions: subcutaneous minipump, 0.85 μg/day for 14 days
Text: Db/db mice on the FVB/N background were utilized as a murine model of progressive diabetic kidney disease (DKD), where there is significant podocyte injury and glomerulosclerosis.

[9] = system: KLF15 promoter mutated at the GR binding site; assay: GR-mutant KLF15 reporter assay; type: cell-based, human
human podocytes [10] = assay: KLF15 and synaptopodin expression and actin stress fibers in LPS-treated human podocytes; type: cell-based; conditions: LPS conditions, vs DMSO-treated podocytes
KLF15 = KLF15 activity in ADR-treated cultured human podocytes; type: cell-based; conditions: nonpermissive conditions 37° C., vs DMSO
human podocytes [11] = assay: Cell viability (renilla activity, MTT assay) in ADR-treated cultured human podocytes; type: cell-based; conditions: vs K-9, K-15, DEX, DMSO
[12] = C57BL/6 mice, LPS 10 μg/g, subcutaneous minipump 3.5 μg/day for 48 hours
[13] = pH 2, room temperature overnight
[14] = pH 4, room temperature overnight
[15] = pH 7.4, room temperature overnight

## CSc1ccc(NC(=O)Nc2ccc(C)nc2)cc1 [BT503]
KLF15 promoter [1]; alone (DEX 1 μM), vs DMSO-treated human podocytes
  KLF15 promoter activity, single agent: significantly induced KLF15 promoter activity
KLF15 promoter [1]; compound 10 nM + DEX 0.5 μM
  KLF15 promoter activity, combination with DEX: synergistic effect
KLF15 promoter [1]; compound 100 nM + DEX 0.5 μM
  KLF15 promoter activity, combination with DEX: synergistic effect
KLF15 promoter [1]; compound 0.5 μM + DEX 0.5 μM
  KLF15 promoter activity, combination with DEX: synergistic effect
KLF15 reporter
  KLF15 reporter activity after LPS treatment: improved KLF15 reporter activity
LPS-treated mice; [12]
  albuminuria: significantly reduced albuminuria
[2]; [13]
  Solubility AVG: 343 µM (≈ 93.8 µg/mL)
  Solubility R1: 332 µM (≈ 90.8 µg/mL)
[2]; [14]
  Solubility AVG: 17.3 µM (≈ 4.73 µg/mL)
  Solubility R1: 17.4 µM (≈ 4.76 µg/mL)
[2]; [15]
  Solubility AVG: 34.5 µM (≈ 9.43 µg/mL)
  Solubility R1: 31.6 µM (≈ 8.64 µg/mL)
Human podocytes [3]
  podocyte survival after LPS treatment: improved; also recorded: improve podocyte survival
Human liver microsomes; 1 μM, 37° C.
  Half-Life: 13 min
  Percent Remaining 0 min: 100
  Percent Remaining 10 min: 60.1
  Percent Remaining 20 min: 35.3
  Percent Remaining 30 min: 18.5
  Percent Remaining 60 min: 3.3
Human liver microsomes; Clint = k/P
  CLint (intrinsic clearance): 0.107 mL/min/mg protein
[4]
  Percent Remaining 0 min: 100
  Percent Remaining 30 min: 90.6
  Percent Remaining 60 min: 87.6
  Percent Remaining 120 min: 80.5
[5]; A-to-B
  Papp AVG: 10.7 10^−6 cm/s
  Papp R1: 13.1 10^−6 cm/s
  Recovery: 59.7%
[5]; B-to-A
  Papp AVG: 9.7 10^−6 cm/s
  Papp R1: 9.06 10^−6 cm/s
  Recovery: 69%
[5]; Caco-2
  Efflux Ratio: 0.909
  Significant Efflux: No (Significant Efflux: ER ≥ 2.0 and Papp (B-to-A) ≥ 1.0 × 10^−6 cm/s)
[5]; Caco-2, from Papp (A-to-B)
  Absorption Potential Classification: High (Papp (A-to-B) ≥ 1.0 × 10^−6 cm/s: High)
KLF15 promoter [6]; 1 μM, 24 hr, vs DMSO
  KLF15 reporter activity, primary screening assay: significantly induced KLF15 reporter activity
KLF15 promoter [6]
  maximal KLF15 reporter activity: higher maximal KLF15 reporter activity
  EC50: ~7.1 nM
Human podocytes [7]
  toxicity to human podocytes: no observed toxicity

## CSc1ccc(NC(=O)Nc2cc(C)ccn2)cc1 [Compound K-7]
KLF15 promoter [1]; K-7 combined with DEX, dose-response curves
  DEX dose required to induce KLF15 reporter activity: reduced the DEX dose required to induce KLF15 reporter activity
KLF15 reporter
  KLF15 reporter activity after LPS treatment: improved KLF15 reporter activity
IL-17R signaling; K-7 vs DMSO in LPS-treated podocytes
  genes involved in IL-17R and NF-κB signaling, chemokine/inflammatory signaling and fibrosis pathways (RNA-seq enrichment): significant decrease
IL-17R signaling; cultured human podocytes, LPS treatment
  transcripts downstream of IL-17R signaling (CSF2, CSF3, CXCL2, CXCL3, CCL2, IL1β): suppressed
[8]; PAS staining and TEM
  podocyte effacement: attenuated podocyte effacement
[8]; quantified with ImageJ
  glomerular basement membrane (GBM) thickness: reduced
  glomerular volume: reduced glomerular volume
LPS-treated mice; 5 mg/kg every 12 hours, LPS-proteinuric mice
  albuminuria: significant improvement in albuminuria
LPS-treated mice; [12]
  albuminuria: significantly reduced albuminuria
Human podocytes [3]
  podocyte survival after LPS treatment: improved
[9]
  KLF15 reporter activity with KLF15 promoter mutated at the GR binding site: induce KLF15 reporter activity independent of GR signaling
Human podocytes [10]
  KLF15 expression: restored
  actin stress fiber formation: restored
  synaptopodin expression: restored
KLF15
  KLF15 activity: restored KLF15 activity
KLF15 promoter [6]
  maximal KLF15 reporter activity: higher maximal KLF15 reporter activity
  EC50: ~11.9 nM
Human podocytes [11]
  cell viability (renilla activity and MTT assay): significantly improved

## Nc1ccccc1-n1nc2ccc3ccccc3c2n1 [Compound K-9]
[9]
  KLF15 reporter activity with KLF15 promoter mutated at the GR binding site: induce KLF15 reporter activity independent of GR signaling
KLF15
  KLF15 activity: restored KLF15 activity
KLF15 promoter [6]
  EC50: ~76.2 nM

## O=C(Nc1ccc2ccccc2c1)c1ccc(Cl)cc1Cl [Compound K-15]
[9]
  KLF15 reporter activity with KLF15 promoter mutated at the GR binding site: induce KLF15 reporter activity independent of GR signaling
KLF15
  KLF15 activity: restored KLF15 activity
KLF15 promoter [6]
  EC50: ~10.9 nM
